{"source": "paper PMC8800111", "about": "(The Journal of Biological Chemistry, 2021)", "format_in_all_cases": "cell-based", "key": {"[1]": {"biological_target": "proteins of U3A human fibrosarcoma cells (4462 proteins detected) (Homo sapiens, UniProt Q6V1X1)", "conditions": "protein DPP8; U3A cells"}, "[2]": {"biological_target": "proteins of U3A human fibrosarcoma cells (4462 proteins detected) (Homo sapiens, UniProt Q9HCD5)", "conditions": "protein NCOA5; U3A cells"}, "[3]": {"biological_target": "proteins of U3A human fibrosarcoma cells (4462 proteins detected) (Homo sapiens, UniProt P15586)", "sequence (P15586 37-552)": "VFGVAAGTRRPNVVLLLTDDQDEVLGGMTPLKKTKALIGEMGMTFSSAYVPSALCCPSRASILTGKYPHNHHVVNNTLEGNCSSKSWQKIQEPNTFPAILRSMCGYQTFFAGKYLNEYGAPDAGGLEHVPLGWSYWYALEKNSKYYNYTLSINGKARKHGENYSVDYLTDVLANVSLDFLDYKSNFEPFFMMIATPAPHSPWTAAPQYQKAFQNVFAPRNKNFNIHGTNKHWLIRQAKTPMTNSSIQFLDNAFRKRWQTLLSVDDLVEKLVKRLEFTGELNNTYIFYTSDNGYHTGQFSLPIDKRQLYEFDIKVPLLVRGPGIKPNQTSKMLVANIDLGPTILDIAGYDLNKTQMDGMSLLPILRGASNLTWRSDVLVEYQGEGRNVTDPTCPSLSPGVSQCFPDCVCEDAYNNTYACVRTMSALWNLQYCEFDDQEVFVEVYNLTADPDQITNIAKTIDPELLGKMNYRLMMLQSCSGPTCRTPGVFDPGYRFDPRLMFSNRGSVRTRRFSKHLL", "conditions": "protein GNS, U3A cells"}, "[4]": {"biological_target": "proteins of U3A human fibrosarcoma cells (4462 proteins detected) (Homo sapiens, UniProt Q9NQG5)", "conditions": "protein RPRD1B; soluble abundance after heat, U3A cells"}, "[5]": {"biological_target": "proteins of U3A human fibrosarcoma cells (4462 proteins detected) (Homo sapiens, UniProt Q8IZL8)", "conditions": "protein PELP1; U3A cells"}, "[6]": {"biological_target": "proteins of U3A human fibrosarcoma cells (4462 proteins detected) (Homo sapiens, UniProt O00505)", "sequence (O00505 whole entry)": "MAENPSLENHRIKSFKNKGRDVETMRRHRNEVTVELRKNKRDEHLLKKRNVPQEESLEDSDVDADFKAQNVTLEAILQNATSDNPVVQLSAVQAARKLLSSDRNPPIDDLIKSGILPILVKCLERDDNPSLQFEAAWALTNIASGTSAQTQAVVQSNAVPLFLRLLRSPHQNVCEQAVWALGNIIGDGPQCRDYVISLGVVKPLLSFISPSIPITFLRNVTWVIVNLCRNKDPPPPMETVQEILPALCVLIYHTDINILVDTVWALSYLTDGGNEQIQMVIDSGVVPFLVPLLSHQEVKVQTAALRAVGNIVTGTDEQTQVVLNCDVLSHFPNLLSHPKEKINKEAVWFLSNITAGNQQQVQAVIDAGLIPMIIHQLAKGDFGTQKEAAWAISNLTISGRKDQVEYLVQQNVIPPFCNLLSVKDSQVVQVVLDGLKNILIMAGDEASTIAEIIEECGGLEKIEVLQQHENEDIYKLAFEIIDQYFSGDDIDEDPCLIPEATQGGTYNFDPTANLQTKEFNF", "conditions": "protein KPNA3; U3A cells"}, "[7]": {"biological_target": "proteins of U3A human fibrosarcoma cells (4462 proteins detected) (Homo sapiens, UniProt O95983)", "sequence (O95983 whole entry)": "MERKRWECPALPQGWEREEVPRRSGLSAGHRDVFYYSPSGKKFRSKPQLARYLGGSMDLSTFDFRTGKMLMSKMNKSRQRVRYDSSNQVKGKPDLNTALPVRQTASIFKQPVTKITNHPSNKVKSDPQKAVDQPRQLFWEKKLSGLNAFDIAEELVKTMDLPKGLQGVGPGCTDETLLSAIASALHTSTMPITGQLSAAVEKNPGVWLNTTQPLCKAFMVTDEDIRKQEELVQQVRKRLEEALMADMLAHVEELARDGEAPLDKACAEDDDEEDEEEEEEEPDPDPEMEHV", "conditions": "protein MBD3; U3A cells"}, "[8]": {"biological_target": "proteins of U3A human fibrosarcoma cells (4462 proteins detected) (Homo sapiens, UniProt P61088)", "sequence (P61088 whole entry)": "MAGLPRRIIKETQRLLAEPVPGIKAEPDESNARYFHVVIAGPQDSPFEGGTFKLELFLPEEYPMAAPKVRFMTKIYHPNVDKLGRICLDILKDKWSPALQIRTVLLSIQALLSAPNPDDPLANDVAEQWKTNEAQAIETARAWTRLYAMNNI", "conditions": "protein UBE2N; UBE2NL; U3A cells"}, "[9]": {"biological_target": "proteins of U3A human fibrosarcoma cells (4462 proteins detected) (Homo sapiens, UniProt Q9P000)", "sequence (Q9P000 whole entry)": "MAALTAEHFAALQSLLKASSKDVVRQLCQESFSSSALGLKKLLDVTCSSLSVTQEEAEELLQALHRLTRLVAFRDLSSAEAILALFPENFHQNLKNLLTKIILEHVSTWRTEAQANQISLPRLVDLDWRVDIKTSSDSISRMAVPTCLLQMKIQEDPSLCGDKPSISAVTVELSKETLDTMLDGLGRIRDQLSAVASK", "conditions": "protein COMMD9; U3A cells"}, "[10]": {"biological_target": "proteins of U3A human fibrosarcoma cells (4462 proteins detected) (Homo sapiens, UniProt Q9H3H3)", "conditions": "protein C11orf68; soluble abundance after heat, U3A cells"}, "[11]": {"biological_target": "proteins of U3A human fibrosarcoma cells (4462 proteins detected) (Homo sapiens, UniProt O75351)", "sequence (O75351 whole entry)": "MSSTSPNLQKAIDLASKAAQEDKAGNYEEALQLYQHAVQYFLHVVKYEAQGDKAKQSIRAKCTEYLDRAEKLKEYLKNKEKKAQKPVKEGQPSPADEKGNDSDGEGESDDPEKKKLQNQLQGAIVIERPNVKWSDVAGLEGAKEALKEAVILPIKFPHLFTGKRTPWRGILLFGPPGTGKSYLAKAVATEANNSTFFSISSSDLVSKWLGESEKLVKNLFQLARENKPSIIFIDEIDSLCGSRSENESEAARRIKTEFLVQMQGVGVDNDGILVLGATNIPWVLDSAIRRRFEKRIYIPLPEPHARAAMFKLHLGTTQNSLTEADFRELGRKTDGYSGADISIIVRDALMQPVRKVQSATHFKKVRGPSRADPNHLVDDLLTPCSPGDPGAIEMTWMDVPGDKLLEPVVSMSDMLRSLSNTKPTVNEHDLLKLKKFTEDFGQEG", "conditions": "protein VPS4B; soluble abundance after heat, U3A cells"}, "[12]": {"biological_target": "proteins of U3A human fibrosarcoma cells (4462 proteins detected) (Homo sapiens, UniProt P08174)", "conditions": "protein CD55; U3A cells"}, "[13]": {"biological_target": "proteins of U3A human fibrosarcoma cells (4462 proteins detected) (Homo sapiens, UniProt Q9BT78)", "conditions": "protein COPS4; U3A cells"}, "[14]": {"biological_target": "proteins of U3A human fibrosarcoma cells (4462 proteins detected) (Homo sapiens, UniProt Q8NCA5)", "conditions": "protein FAM98A; U3A cells"}, "[15]": {"biological_target": "proteins of U3A human fibrosarcoma cells (4462 proteins detected) (Homo sapiens, UniProt Q9H8M7)", "conditions": "protein FAM188A, U3A cells"}, "[16]": {"biological_target": "proteins of U3A human fibrosarcoma cells (4462 proteins detected) (Homo sapiens, UniProt Q6KC79)", "conditions": "protein NIPBL; U3A cells"}, "[17]": {"biological_target": "proteins of U3A human fibrosarcoma cells (4462 proteins detected) (Homo sapiens, UniProt P13693)", "sequence (P13693 whole entry)": "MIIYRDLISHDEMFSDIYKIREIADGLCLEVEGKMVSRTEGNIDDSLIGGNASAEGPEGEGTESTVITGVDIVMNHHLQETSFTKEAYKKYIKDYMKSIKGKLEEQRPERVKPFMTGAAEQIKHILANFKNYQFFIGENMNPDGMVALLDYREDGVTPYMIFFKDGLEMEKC", "conditions": "protein TPT1, U3A cells"}, "[18]": {"biological_target": "proteins of U3A human fibrosarcoma cells (4462 proteins detected) (Homo sapiens, UniProt P28482)", "conditions": "protein MAPK1; soluble abundance after heat, U3A cells"}, "[19]": {"biological_target": "proteins of U3A human fibrosarcoma cells (4462 proteins detected) (Homo sapiens, UniProt P20700)", "sequence (P20700 whole entry)": "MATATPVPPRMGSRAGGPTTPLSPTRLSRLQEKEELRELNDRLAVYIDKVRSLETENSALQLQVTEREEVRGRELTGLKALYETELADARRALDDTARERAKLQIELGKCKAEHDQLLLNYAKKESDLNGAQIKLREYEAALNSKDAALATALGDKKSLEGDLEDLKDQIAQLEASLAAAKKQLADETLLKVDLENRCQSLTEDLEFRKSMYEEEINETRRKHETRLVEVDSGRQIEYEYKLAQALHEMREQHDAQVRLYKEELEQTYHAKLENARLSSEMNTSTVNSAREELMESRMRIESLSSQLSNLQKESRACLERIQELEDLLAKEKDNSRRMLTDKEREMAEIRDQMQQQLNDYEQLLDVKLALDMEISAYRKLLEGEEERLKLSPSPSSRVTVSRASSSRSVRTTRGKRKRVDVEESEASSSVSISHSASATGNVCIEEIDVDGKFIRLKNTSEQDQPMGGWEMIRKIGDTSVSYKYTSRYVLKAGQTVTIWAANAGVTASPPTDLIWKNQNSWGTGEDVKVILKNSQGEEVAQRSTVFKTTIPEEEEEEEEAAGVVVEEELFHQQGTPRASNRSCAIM", "conditions": "protein LMNB1; soluble abundance after heat, U3A cells"}, "[20]": {"biological_target": "proteins of U3A human fibrosarcoma cells (4462 proteins detected) (Homo sapiens, UniProt Q9UNN8)", "conditions": "protein PROCR; U3A cells"}, "[21]": {"biological_target": "proteins of U3A human fibrosarcoma cells (4462 proteins detected) (Homo sapiens, UniProt P14854)", "sequence (P14854 whole entry)": "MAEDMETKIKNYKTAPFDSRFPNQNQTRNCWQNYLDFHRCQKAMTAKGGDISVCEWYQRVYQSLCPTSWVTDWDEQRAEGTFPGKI", "conditions": "protein COX6B1, U3A cells"}, "[22]": {"biological_target": "proteins of U3A human fibrosarcoma cells (4462 proteins detected) (Homo sapiens, UniProt Q9Y5A9)", "conditions": "protein YTHDF2; U3A cells"}, "[23]": {"biological_target": "proteins of U3A human fibrosarcoma cells (4462 proteins detected) (Homo sapiens, UniProt P36542)", "conditions": "protein ATP5C1; U3A cells"}, "[24]": {"biological_target": "proteins of U3A human fibrosarcoma cells (4462 proteins detected) (Homo sapiens, UniProt Q9NZT2)", "conditions": "protein OGFR, U3A cells"}, "[25]": {"biological_target": "proteins of U3A human fibrosarcoma cells (4462 proteins detected) (Homo sapiens, UniProt Q8IYB8)", "sequence (Q8IYB8 23-786)": "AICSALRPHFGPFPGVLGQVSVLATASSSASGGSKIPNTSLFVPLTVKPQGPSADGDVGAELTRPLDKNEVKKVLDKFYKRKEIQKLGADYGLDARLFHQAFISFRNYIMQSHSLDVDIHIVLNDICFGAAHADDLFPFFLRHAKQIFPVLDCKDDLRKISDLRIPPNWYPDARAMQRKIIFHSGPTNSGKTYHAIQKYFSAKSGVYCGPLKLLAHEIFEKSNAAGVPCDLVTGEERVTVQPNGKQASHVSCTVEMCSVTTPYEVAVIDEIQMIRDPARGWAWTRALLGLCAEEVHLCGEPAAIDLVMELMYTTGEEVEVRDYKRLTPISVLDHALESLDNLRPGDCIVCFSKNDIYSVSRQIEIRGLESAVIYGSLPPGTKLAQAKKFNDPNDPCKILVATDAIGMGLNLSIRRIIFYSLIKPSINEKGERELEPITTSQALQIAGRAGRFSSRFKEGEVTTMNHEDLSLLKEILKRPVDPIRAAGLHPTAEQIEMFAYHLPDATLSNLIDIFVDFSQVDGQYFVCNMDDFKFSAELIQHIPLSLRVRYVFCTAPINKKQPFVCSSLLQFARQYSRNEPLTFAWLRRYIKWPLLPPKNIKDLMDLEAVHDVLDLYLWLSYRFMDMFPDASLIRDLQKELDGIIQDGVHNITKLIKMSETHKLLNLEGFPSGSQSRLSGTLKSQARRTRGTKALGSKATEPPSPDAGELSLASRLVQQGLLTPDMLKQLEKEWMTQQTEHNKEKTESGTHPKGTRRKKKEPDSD", "conditions": "protein SUPV3L1; U3A cells"}, "[26]": {"biological_target": "proteins of U3A human fibrosarcoma cells (4462 proteins detected) (Homo sapiens, UniProt Q96T60)", "conditions": "protein PNKP; U3A, 10 μM, 2 h"}, "[27]": {"biological_target": "proteins of U3A human fibrosarcoma cells (4462 proteins detected) (Homo sapiens, UniProt P61289)", "conditions": "protein PSME3; U3A cells"}, "[28]": {"biological_target": "proteins of U3A human fibrosarcoma cells (4462 proteins detected) (Homo sapiens, UniProt Q5HYK7)", "conditions": "protein SH3D19; U3A, 10 μM, 2 h"}, "[29]": {"biological_target": "proteins of U3A human fibrosarcoma cells (4462 proteins detected) (Homo sapiens, UniProt P15153)", "conditions": "protein RAC2; U3A, 10 μM, 2 h"}, "[30]": {"biological_target": "proteins of U3A human fibrosarcoma cells (4462 proteins detected) (Homo sapiens, UniProt Q9NS91)", "sequence (Q9NS91 whole entry)": "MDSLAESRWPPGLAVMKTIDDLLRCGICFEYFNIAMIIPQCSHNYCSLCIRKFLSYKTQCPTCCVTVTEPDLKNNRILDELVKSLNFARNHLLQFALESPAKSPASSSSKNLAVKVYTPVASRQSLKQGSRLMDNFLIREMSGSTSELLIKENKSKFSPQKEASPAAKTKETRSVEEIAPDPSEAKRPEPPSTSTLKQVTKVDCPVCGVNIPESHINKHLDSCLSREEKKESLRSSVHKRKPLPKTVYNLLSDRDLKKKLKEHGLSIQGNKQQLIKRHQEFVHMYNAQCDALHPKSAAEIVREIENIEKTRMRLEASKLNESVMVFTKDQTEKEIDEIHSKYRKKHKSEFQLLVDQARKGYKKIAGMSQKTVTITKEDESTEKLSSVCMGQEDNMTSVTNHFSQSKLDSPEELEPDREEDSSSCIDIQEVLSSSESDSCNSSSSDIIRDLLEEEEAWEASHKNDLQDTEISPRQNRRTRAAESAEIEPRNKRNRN", "conditions": "protein RAD18; U3A cells"}}}
{"smiles": "CCc1nc(N)nc(N)c1-c1ccc(Cl)cc1", "note": "[pyrimethamine]", "values": [{"measurement": "Log2 (PYR/DMSO)", "setting": "[1]", "result": 0.16}, {"measurement": "Log2 (PYR/DMSO)", "setting": "[2]", "result": 0.17}, {"measurement": "Log2 (PYR/DMSO)", "setting": "[3]", "result": -0.04}, {"measurement": "Log2 (PYR/DMSO)", "setting": "[4]", "result": 0.15}, {"measurement": "Log2 (PYR/DMSO)", "setting": "[5]", "result": 0.16}, {"measurement": "Log2 (PYR/DMSO)", "setting": "[6]", "result": 0.18}, {"measurement": "Log2 (PYR/DMSO)", "setting": "[7]", "result": 0.16}, {"measurement": "Log2 (PYR/DMSO)", "setting": "[8]", "result": 0.21}, {"measurement": "Log2 (PYR/DMSO)", "setting": "[9]", "result": 0.16}, {"measurement": "Log2 (PYR/DMSO)", "setting": "[10]", "result": 0.14}, {"measurement": "Log2 (PYR/DMSO)", "setting": "[11]", "result": 0.14}, {"measurement": "Log2 (PYR/DMSO)", "setting": "[12]", "result": 0.20}, {"measurement": "Log2 (PYR/DMSO)", "setting": "[13]", "result": 0.20}, {"measurement": "Log2 (PYR/DMSO)", "setting": "[14]", "result": 0.24}, {"measurement": "Log2 (PYR/DMSO)", "setting": "[15]", "result": -0.04}, {"measurement": "Log2 (PYR/DMSO)", "setting": "[16]", "result": 0.23}, {"measurement": "Log2 (PYR/DMSO)", "setting": "[17]", "result": -0.05}, {"measurement": "Log2 (PYR/DMSO)", "setting": "[18]", "result": 0.15}, {"measurement": "Log2 (PYR/DMSO)", "setting": "[19]", "result": 0.15}, {"measurement": "Log2 (PYR/DMSO)", "setting": "[20]", "result": 0.18}, {"measurement": "Log2 (PYR/DMSO)", "setting": "[21]", "result": -0.04}, {"measurement": "Log2 (PYR/DMSO)", "setting": "[22]", "result": 0.16}, {"measurement": "Log2 (PYR/DMSO)", "setting": "[23]", "result": 0.21}, {"measurement": "Log2 (PYR/DMSO)", "setting": "[24]", "result": -0.04}, {"measurement": "Log2 (PYR/DMSO)", "setting": "[25]", "result": 0.19}, {"measurement": "Log2 (PYR/DMSO), PNKP", "setting": "[26]", "result": -0.22}, {"measurement": "Log2 (PYR/DMSO)", "setting": "[27]", "result": 0.17}, {"measurement": "Log2 (PYR/DMSO), SH3D19", "setting": "[28]", "result": -0.14}, {"measurement": "Log2 (PYR/DMSO), RAC2", "setting": "[29]", "result": -0.15}, {"measurement": "Log2 (PYR/DMSO)", "setting": "[30]", "result": 0.17}]}
